Assays:
[1] = tested on: GST-Bcl-2; assay: TR-FRET binding assay, Bcl-2; settings: TR-FRET Ki values
Procedure, shortened: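 Ki values come from Wang's competitive-binding equation applied to TR-FRET signal (excitation 340/35 nm; emission 520/525 nm F-Bak peptide, 495/510 nm Tb antibody). Protein, probe and antibody incubated with compound 3 h at room temperature; dilution series began at 50 μM as 2× stock in 10% DMSO.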

[2] = tested on: FL5.12/Bcl-2 cells; assay: FL5.12/Bcl-2 cell viability assay; format: cell-based, murine; settings: ratio of canine platelet EC50 to FL5.12/Bcl-2 EC50
Text: FL5.12 is an IL-3 dependent prolymphocytic murine cell line that undergoes apoptosis upon IL-3 withdrawal as a result of the upregulation of pro-apoptotic Bcl-2 proteins such as Bim and Puma. Stable overexpression of anti-apoptotic Bcl-2 protein (FL5.12/Bcl-2) protects against apoptosis induced by IL-3 withdrawal by sequestration of Bim and Puma. […] The ability of compounds to kill FL5.12/Bcl-2 cells upon IL-3 withdrawal is a direct measure of the compounds' ability to inhibit anti-apoptotic Bcl-2 protein function.
Wild type FL5.12/Bcl-2 overexpressing stable transfectants were cultured in RPMI-1640 supplemented with 2 mM L-glutamine, 10% FBS, 1 mM sodium pyruvate, 2 mM HEPES, 1% penicillin/streptomycin (Invitrogen), 57 μM β-ME, and 10% WEHI-3B conditioned medium (source of IL-3) and maintained at 37° C. containing 5% CO2. 1×10^6 cells/ml were washed 1×PBS and resuspended in medium not supplemented with 10% WEHI-3B for 48 hrs prior to cytotoxicity assays. Cells were then treated for an additional 24 hrs in the presence of various concentrations of the indicated compounds. Cell viability was assessed by CellTitre Glo assay (Promega Corp.) according to the manufacturer's recommendations.

Structure (SMILES)	Binding selectivity ratio (Bcl-XL Ki/Bcl-2 Ki) [1]	Selectivity Ratio (Platelet EC50/FL5.12/Bcl-2 EC50) [2]
CN1CCC(Nc2ccc(S(=O)(=O)NC(=O)c3ccc(N4CCN(CC5=C(c6ccc(Cl)cc6)CCCC5)CC4)cc3Oc3ccc4[nH]ccc4c3)cc2[N+](=O)[O-])CC1 [Example 75, 4-(4-{[2-(4-chlorophenyl)cyclohex-1-en-1-yl]methyl}piperazin-1-yl)-2-(1H-indol-5-yloxy)-N-({4-[(1-methylpiperidin-4-yl)amino]-3-nitrophenyl}sulfonyl)benzamide]	852.2	821
CN1CCN(CCCNc2ccc(S(=O)(=O)NC(=O)c3ccc(N4CCN(Cc5ccccc5-c5ccc(Cl)cc5)CC4)cc3Oc3ccccc3)cc2[N+](=O)[O-])CC1 [Example 86, 4-{4-[(4′-chloro-1,1′-biphenyl-2-yl)methyl]piperazin-1-yl}-N-[(4-{[3-(4-methylpiperazin-1-yl)propyl]amino}-3-nitrophenyl)sulfonyl]-2-phenoxybenzamide]	49.6	489
CN1CCC(CNc2ccc(S(=O)(=O)NC(=O)c3ccc(N4CCN(Cc5ccccc5-c5ccc(Cl)cc5)CC4)cc3Oc3ccccc3)cc2[N+](=O)[O-])CC1 [Example 88, 4-{4-[(4′-chloro-1,1′-biphenyl-2-yl)methyl]piperazin-1-yl}-N-[(4-{[(1-methylpiperidin-4-yl)methyl]amino}-3-nitrophenyl)sulfonyl]-2-phenoxybenzamide]	67.3	613
CN1CCC(Nc2ccc(S(=O)(=O)NC(=O)c3ccc(N4CCN(Cc5ccccc5-c5ccc(Cl)cc5)CC4)cc3Oc3ccccc3)cc2[N+](=O)[O-])CC1 [Example 89, 4-{4-[(4′-chloro-1,1′-biphenyl-2-yl)methyl]piperazin-1-yl}-N-({4-[(1-methylpiperidin-4-yl)amino]-3-nitrophenyl}sulfonyl)-2-phenoxybenzamide]	57.8	495
CN(C)CCCOc1ccc(S(=O)(=O)NC(=O)c2ccc(N3CCN(Cc4ccccc4-c4ccc(Cl)cc4)CC3)cc2Oc2ccccc2)cc1[N+](=O)[O-] [Example 94, 4-{4-[(4′-chloro-1,1′-biphenyl-2-yl)methyl]piperazin-1-yl}-N-({4-[3-(dimethylamino)propoxy]-3-nitrophenyl}sulfonyl)-2-phenoxybenzamide]	33.1	590
CN1CCN(CCCNc2ccc(S(=O)(=O)NC(=O)c3ccc(N4CCN(CC5=C(c6ccc(Cl)cc6)CC(C)(C)CC5)CC4)cc3Oc3ccc4[nH]ccc4c3)cc2[N+](=O)[O-])CC1 [Example 96, 4-(4-{[2-(4-chlorophenyl)-4,4-dimethylcyclohex-1-en-1-yl]methyl}piperazin-1-yl)-2-(1H-indol-5-yloxy)-N-[(4-{[3-(4-methylpiperazin-1-yl)propyl]amino}-3-nitrophenyl)sulfonyl]benzamide]	186.8	2043
CC1(C)CCC(CN2CCN(c3ccc(C(=O)NS(=O)(=O)c4ccc(NCCCN5CCCC5)c([N+](=O)[O-])c4)c(Oc4ccc5[nH]ccc5c4)c3)CC2)=C(c2ccc(Cl)cc2)C1 [Example 97, 4-(4-{[2-(4-chlorophenyl)-4,4-dimethylcyclohex-1-en-1-yl]methyl}piperazin-1-yl)-2-(1H-indol-5-yloxy)-N-({3-nitro-4-[(3-pyrrolidin-1-ylpropyl)amino]phenyl}sulfonyl)benzamide]	96.7	1052
CN1CCC(Nc2ccc(S(=O)(=O)NC(=O)c3ccc(N4CCN(CC5=C(c6ccc(Cl)cc6)CC(C)(C)CC5)CC4)cc3Oc3ccc4[nH]ccc4c3)cc2[N+](=O)[O-])CC1 [Example 98, 4-(4-{[2-(4-chlorophenyl)-4,4-dimethylcyclohex-1-en-1-yl]methyl}piperazin-1-yl)-2-(1H-indol-5-yloxy)-N-({4-[(1-methylpiperidin-4-yl)amino]-3-nitrophenyl}sulfonyl)benzamide]	>50769.2	4849
CN1CCN(CCCNc2ccc(S(=O)(=O)NC(=O)c3ccc(N4CCN(CC5=C(c6ccc(Cl)cc6)CC(C)(C)CC5)CC4)cc3Oc3cccc4[nH]ccc34)cc2[N+](=O)[O-])CC1 [Example 99, 4-(4-{[2-(4-chlorophenyl)-4,4-dimethylcyclohex-1-en-1-yl]methyl}piperazin-1-yl)-2-(1H-indol-4-yloxy)-N-[(4-{[3-(4-methylpiperazin-1-yl)propyl]amino}-3-nitrophenyl)sulfonyl]benzamide]	138.3	2440
CN(C)CCCOc1ccc(S(=O)(=O)NC(=O)c2ccc(N3CCN(CC4=C(c5ccc(Cl)cc5)CC(C)(C)CC4)CC3)cc2Oc2ccc3[nH]ccc3c2)cc1[N+](=O)[O-] [Example 100, 4-(4-{[2-(4-chlorophenyl)-4,4-dimethylcyclohex-1-en-1-yl]methyl}piperazin-1-yl)-N-({4-[3-(dimethylamino)propoxy]-3-nitrophenyl}sulfonyl)-2-(1H-indol-5-yloxy)benzamide]	71.4	2029
CC1(C)CCC(CN2CCN(c3ccc(C(=O)NS(=O)(=O)c4ccc(NCCCN5CCCC5)c([N+](=O)[O-])c4)c(Oc4cccc5[nH]ccc45)c3)CC2)=C(c2ccc(Cl)cc2)C1 [Example 102, 4-(4-{[2-(4-chlorophenyl)-4,4-dimethylcyclohex-1-en-1-yl]methyl}piperazin-1-yl)-2-(1H-indol-4-yloxy)-N-({3-nitro-4-[(3-pyrrolidin-1-ylpropyl)amino]phenyl}sulfonyl)benzamide]	64.1	996
CN1CCC(Nc2ccc(S(=O)(=O)NC(=O)c3ccc(N4CCN(CC5=C(c6ccc(Cl)cc6)CC(C)(C)CC5)CC4)cc3Oc3cccc4[nH]ccc34)cc2[N+](=O)[O-])CC1 [Example 103, 4-(4-{[2-(4-chlorophenyl)-4,4-dimethylcyclohex-1-en-1-yl]methyl}piperazin-1-yl)-2-(1H-indol-4-yloxy)-N-({4-[(1-methylpiperidin-4-yl)amino]-3-nitrophenyl}sulfonyl)benzamide]	2096.1	2305
CN1CCC(CNc2ccc(S(=O)(=O)NC(=O)c3ccc(N4CCN(CC5=C(c6ccc(Cl)cc6)CC(C)(C)CC5)CC4)cc3Oc3ccc4[nH]ccc4c3)cc2[N+](=O)[O-])CC1 [Example 104, 4-(4-{[2-(4-chlorophenyl)-4,4-dimethylcyclohex-1-en-1-yl]methyl}piperazin-1-yl)-2-(1H-indol-5-yloxy)-N-[(4-{[(1-methylpiperidin-4-yl)methyl]amino}-3-nitrophenyl)sulfonyl]benzamide]	637.7	>2392
CN1CCC(CNc2ccc(S(=O)(=O)NC(=O)c3ccc(N4CCN(CC5=C(c6ccc(Cl)cc6)CC(C)(C)CC5)CC4)cc3Oc3cccc4[nH]ccc34)cc2[N+](=O)[O-])CC1 [Example 105, 4-(4-{[2-(4-chlorophenyl)-4,4-dimethylcyclohex-1-en-1-yl]methyl}piperazin-1-yl)-2-(1H-indol-4-yloxy)-N-[(4-{[(1-methylpiperidin-4-yl)methyl]amino}-3-nitrophenyl)sulfonyl]benzamide]	62.7	2262
CN1CCC(CNc2ccc(S(=O)(=O)NC(=O)c3ccc(N4CCN(CC5=C(c6ccc(Cl)cc6)CC(C)(C)CC5)CC4)cc3Oc3ccc4[nH]ccc4c3)cc2[N+](=O)[O-])(N(C)C)CC1 [Example 109, 4-(4-{[2-(4-chlorophenyl)-4,4-dimethylcyclohex-1-en-1-yl]methyl}piperazin-1-yl)-N-{[4-({[4-(dimethylamino)-1-methylpiperidin-4-yl]methyl}amino)-3-nitrophenyl]sulfonyl}-2-(1H-indol-5-yloxy)benzamide]	>4099.4	>1404
CN(C)CCOc1ccc(-c2ccc(Cl)cc2)c(CN2CCN(c3ccc(C(=O)NS(=O)(=O)c4ccc(NCC5CCOCC5)c(S(=O)(=O)C(F)(F)F)c4)c(Oc4ccccc4)c3)CC2)c1 [Example 120, 4-[4-({4′-chloro-4-[2-(dimethylamino)ethoxy]-1,1′-biphenyl-2-yl}methyl)piperazin-1-yl]-2-phenoxy-N-({4-[(tetrahydro-2H-pyran-4-ylmethyl)amino]-3-[(trifluoromethyl)sulfonyl]phenyl}sulfonyl)benzamide]	224.8	>157
CN(C)CCOc1ccc(-c2ccc(Cl)cc2)c(CN2CCN(c3ccc(C(=O)NS(=O)(=O)c4ccc(NCCCN5CCCC5)c([N+](=O)[O-])c4)c(Oc4ccccc4)c3)CC2)c1 [Example 121, 4-[4-({4′-chloro-4-[2-(dimethylamino)ethoxy]-1,1′-biphenyl-2-yl}methyl)piperazin-1-yl]-N-({3-nitro-4-[(3-pyrrolidin-1-ylpropyl)amino]phenyl}sulfonyl)-2-phenoxybenzamide]	388	8

From US9125913B2, “Bcl-2-selective apoptosis-inducing agents for the treatment of cancer and immune diseases” (AbbVie Inc., priority 2008, dated 2015)
